Measured values as given in patent publication US20100105655A1, “NOVEL COMPOUNDS 515” (ASTRAZENECA AB, priority 2008, published 2010).

Biological target: T1, human IGF1R (Homo sapiens, UniProt P08069)
T1 construct: expressed in transfected cells; host or cells: R+ cells (R- mouse fibroblasts transfected with human IGF1R)
Assay: Inhibition of insulin-like growth factor-1 receptor phosphorylation (immunofluorescence end point cell assay, R+ cells)
Assay type: cell-based
Conditions: R+ cells stimulated with 30 nM IGF1
Description: This immunofluorescence end point cell assay measures the ability of a test compound to reduce the measured levels of IGF phosphorylation after IGF1 stimulation in R^+ cells. R^+ cells are derived by transfection of R^− mouse fibroblast cells with human IGF1R. R^+ cells are routinely cultured in DMEM growth medium (Gibco BRL, 41966) containing 2 mM L-Glutamine (Invitrogen Code no. 25030-024) and 10% (v/v) foetal bovine serum (FBS)) in a 5% CO2 air incubator at 37° C.
To undertake the assay, the R^+ cells are seeded at 5×10^3 cells/well in DMEM plus 1% foetal calf serum, 1% L-glutamine in 96-well black Packard View plates (PerkinElmer 6005182) and incubated at 37° C. (+5% CO2) in a humidified incubator. […]
Following the compound treatment, the R^+ cells are stimulated with a final concentration of 30 nM IGF1 (Gropep IM001) for 20 minutes at 37° C. […] Additionally, in-house antibodies raised against phospho IGF1R were also used at a suitable titre determined for each batch. […]
The Green Fluorescent phospho IGF1R-associated signal in each well was measured using an Acumen Explorer HTS Reader (TTP Labtech Ltd., Cambridge). Phospho IGF1R-associated fluorescence emission can be detected at 530 nm following excitation at 488 nm. […] These fluorescent objects can be quantified and provide a measure of the phospho IGF1R levels in cells. […]

T1 sequence (P08069 31-1367): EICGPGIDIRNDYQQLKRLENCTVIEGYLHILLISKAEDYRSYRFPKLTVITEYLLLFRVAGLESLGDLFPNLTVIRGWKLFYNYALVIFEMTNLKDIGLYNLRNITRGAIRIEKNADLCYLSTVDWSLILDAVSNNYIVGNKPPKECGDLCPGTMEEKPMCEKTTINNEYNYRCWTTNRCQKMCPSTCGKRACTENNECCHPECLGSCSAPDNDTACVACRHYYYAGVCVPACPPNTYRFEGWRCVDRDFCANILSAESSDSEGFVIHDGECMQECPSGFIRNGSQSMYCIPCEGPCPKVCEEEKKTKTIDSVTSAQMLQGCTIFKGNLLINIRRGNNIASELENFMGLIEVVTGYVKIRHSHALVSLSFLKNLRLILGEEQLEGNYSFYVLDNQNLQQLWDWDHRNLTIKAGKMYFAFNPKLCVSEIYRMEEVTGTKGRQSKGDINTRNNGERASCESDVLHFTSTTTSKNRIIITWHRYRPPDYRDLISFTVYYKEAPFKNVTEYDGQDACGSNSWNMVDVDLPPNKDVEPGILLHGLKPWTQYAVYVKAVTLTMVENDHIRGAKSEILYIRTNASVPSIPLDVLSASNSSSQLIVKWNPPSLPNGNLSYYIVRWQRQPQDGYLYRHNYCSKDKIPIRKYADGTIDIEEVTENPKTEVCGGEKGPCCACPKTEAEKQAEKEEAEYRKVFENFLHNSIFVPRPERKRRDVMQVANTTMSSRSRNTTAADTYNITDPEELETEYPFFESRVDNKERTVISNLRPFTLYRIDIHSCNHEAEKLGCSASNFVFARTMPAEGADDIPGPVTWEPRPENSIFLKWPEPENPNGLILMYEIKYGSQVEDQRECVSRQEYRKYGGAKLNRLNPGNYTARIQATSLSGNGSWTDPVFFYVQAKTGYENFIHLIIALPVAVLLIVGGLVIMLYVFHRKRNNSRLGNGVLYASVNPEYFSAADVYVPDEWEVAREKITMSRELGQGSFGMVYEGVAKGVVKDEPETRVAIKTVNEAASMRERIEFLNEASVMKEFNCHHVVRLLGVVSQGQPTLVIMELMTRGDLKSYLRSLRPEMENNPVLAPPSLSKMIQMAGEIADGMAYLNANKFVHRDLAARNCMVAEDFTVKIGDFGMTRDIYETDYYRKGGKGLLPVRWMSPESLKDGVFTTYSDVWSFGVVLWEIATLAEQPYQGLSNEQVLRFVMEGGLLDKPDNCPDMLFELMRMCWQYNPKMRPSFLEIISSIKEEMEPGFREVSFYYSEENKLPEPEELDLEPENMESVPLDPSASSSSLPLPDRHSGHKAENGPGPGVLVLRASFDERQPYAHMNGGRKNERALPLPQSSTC

| SMILES | IC50 [nM] |
| --- | --- |
| COc1cc(N2CC(C)NC(C)C2)ccc1Nc1ncc(Cl)c(-c2cnc3ccccn23)n1 (centres unmarked) [5-chloro-N-[4-(3,5-dimethylpiperazin-1-yl)-2-methoxy-phenyl]-4-imidazo[1,2-a]pyridin-3-yl-pyrimidin-2-amine] | 4 |

Test system: not given
Assay: not given
Conditions: not given

| SMILES | melting point |
| --- | --- |
| COc1cc(N2CCN(CCO)CC2)ccc1Nc1ncc(F)c(-c2cnc3ccccn23)n1 [Example 81, 2-[4-[4-[(5-fluoro-4-imidazo[1,2-a]pyridin-3-yl-pyrimidin-2-yl)amino]-3-methoxy-phenyl]piperazin-1-yl]ethanol] | ~ 171.3 °C |

Biological target: T2, IGFR kinase (Homo sapiens, UniProt P08069)
T2 construct: purchased Millipore
Assay: Enzyme assay (c), IGFR kinase, Caliper LabChip
Assay type: biochemical
Conditions: 30 nM IGFR kinase, 6 uM ATP, 3 uM peptide mix; read-out: IGFR IC50

T2 sequence (P08069 31-1367): as above

| SMILES | IC50 [nM] |
| --- | --- |
| Cc1ccc(N2CC[C@H](N(C)C)C2)cc1Nc1ncc(Cl)c(-c2cnc3ccccn23)n1 [Example 3.14, 5-chloro-N-[5-[(3S)-3-dimethylaminopyrrolidin-1-yl]-2-methyl-phenyl]-4-imidazo[1,2-a]pyridin-3-yl-pyrimidin-2-amine] | 30 |
| COc1cc(N2CCN(CCO)CC2)ccc1Nc1ncc(F)c(-c2cnc3ccccn23)n1 [Example 81, 2-[4-[4-[(5-fluoro-4-imidazo[1,2-a]pyridin-3-yl-pyrimidin-2-yl)amino]-3-methoxy-phenyl]piperazin-1-yl]ethanol] | 30 |
| COc1cc(N2CCN(CCO)CC2)ccc1Nc1ncc(C)c(-c2cnn3ccccc23)n1 [Example 161, 2-[4-[3-methoxy-4-[(5-methyl-4-pyrazolo[1,5-a]pyridin-3-yl-pyrimidin-2-yl)amino]phenyl]piperazin-1-yl]ethanol] | 11 |
| COc1cc(N2CCS(=O)(=O)CC2)ccc1Nc1ncc(Cl)c(-c2cnc3ccccn23)n1 [Example 3.15, 5-chloro-N-[4-(1,1-dioxo-1,4-thiazinan-4-yl)-2-methoxy-phenyl]-4-imidazo[1,2-a]pyridin-3-yl-pyrimidin-2-amine] | 60 |
| COc1cc(N2CC[C@@H](O)C2)ccc1Nc1ncc(Cl)c(-c2cnc3ccccn23)n1 [Example 3.49, (3R)-1-[4-[(5-chloro-4-imidazo[1,2-a]pyridin-3-yl-pyrimidin-2-yl)amino]-3-methoxy-phenyl]pyrrolidin-3-ol] | 19 |
| COc1cc(N2CCN(C(C)=O)C[C@@H](O)C2)ccc1Nc1ncc(Cl)c(-c2cnc3ccccn23)n1 [Example 3.40, 1-[(6S)-4-[4-[(5-chloro-4-imidazo[1,2-a]pyridin-3-yl-pyrimidin-2-yl)amino]-3-methoxy-phenyl]-6-hydroxy-1,4-diazepan-1-yl]ethanone] | 24 |
| COc1cc(C2CCN(C(=O)[C@H](C)O)CC2)ccc1Nc1ncc(Cl)c(-c2cnn3ccccc23)n1 [Example 139, (2S)-1-[4-[4-[(5-chloro-4-pyrazolo[1,5-a]pyridin-3-yl-pyrimidin-2-yl)amino]-3-methoxy-phenyl]-1-piperidyl]-2-hydroxy-propan-1-one] | 12 |
| COc1cc(N2CCN(C(=O)N3CCNCC3)CC2)ccc1Nc1ncc(Cl)c(-c2cnc3ccccn23)n1 [Example 47.3, [4-[4-[(5-chloro-4-imidazo[1,2-a]pyridin-3-yl-pyrimidin-2-yl)amino]-3-methoxy-phenyl]piperazin-1-yl]-piperazin-1-yl-methanone] | 6 |
| COc1ccc(N2CC3CNCC(C2)O3)cc1Nc1ncc(Cl)c(-c2cnc3c(F)cccn23)n1 [Example 192, 5-chloro-4-(8-fluoroimidazo[1,2-a]pyridin-3-yl)-N-[2-methoxy-5-(9-oxa-3,7-diazabicyclo[3.3.1]nonan-7-yl)phenyl]pyrimidin-2-amine] | 530 |
| COc1cc(N2CCN(C(=O)[C@@H](C)N)CC2)ccc1Nc1ncc(Cl)c(-c2cnc3c(F)cc(F)cn23)n1 [Example 253, (2R)-2-amino-1-[4-[4-[[5-chloro-4-(6,8-difluoroimidazo[1,2-a]pyridin-3-yl)pyrimidin-2-yl]amino]-3-methoxy-phenyl]piperazin-1-yl]propan-1-one] | 4 |
| COc1cc(N2CCCC2)ccc1Nc1ncc(F)c(-c2cnc3ccccn23)n1 [Example 80, 5-fluoro-4-imidazo[1,2-a]pyridin-3-yl-N-(2-methoxy-4-pyrrolidin-1-yl-phenyl)pyrimidin-2-amine] | 133 |
| COc1cc(C2CCN(C(C)=O)CC2)ccc1Nc1ncc(C)c(-c2cnn3ccccc23)n1 [Example 233, 1-[4-[3-methoxy-4-[(5-methyl-4-pyrazolo[1,5-a]pyridin-3-yl-pyrimidin-2-yl)amino]phenyl]-1-piperidyl]ethanone] | 9 |
| COc1cc(N(C)CC(=O)N(C)C)ccc1Nc1ncc(Cl)c(-c2cnc3c(F)cccn23)n1 [Example 225, 2-[4-[[5-chloro-4-(8-fluoroimidazo[1,2-a]pyridin-3-yl)pyrimidin-2-yl]amino]-3-methoxy-N-methyl-anilino]-N,N-dimethyl-acetamide] | 130 |
| COc1cc(C(CO)CO)ccc1Nc1ncc(Cl)c(-c2cnn3ccccc23)n1 [Example 148, 2-[4-[(5-chloro-4-pyrazolo[1,5-a]pyridin-3-yl-pyrimidin-2-yl)amino]-3-methoxy-phenyl]propane-1,3-diol] | 17 |
| COc1cc(N2CCN(C(=O)[C@H](C)OC)CC2)ccc1Nc1ncc(Cl)c(-c2cnc3ccccn23)n1 [Example 25.3, (2S)-1-[4-[4-[(5-chloro-4-imidazo[1,2-a]pyridin-3-yl-pyrimidin-2-yl)amino]-3-methoxy-phenyl]piperazin-1-yl]-2-methoxy-propan-1-one] | 14 |
| COc1cc(C2CCNCC2)ccc1Nc1ncc(F)c(-c2cnc3ccccn23)n1 [Example 86, 5-fluoro-4-imidazo[1,2-a]pyridin-3-yl-N-[2-methoxy-4-(4-piperidyl)phenyl]pyrimidin-2-amine] | 12 |
| COc1ccc(C2CCNCC2)cc1Nc1ncc(F)c(-c2cnc3ccccn23)n1 [Example 112, 5-fluoro-4-imidazo[1,2-a]pyridin-3-yl-N-[2-methoxy-5-(4-piperidyl)phenyl]pyrimidin-2-amine] | 42 |
| COc1cc(N2CC3CN(CC(=O)N(C)C)CC(C2)O3)ccc1Nc1ncc(Cl)c(-c2cnc3c(F)cccn23)n1 [Example 205, 2-[3-[4-[[5-chloro-4-(8-fluoroimidazo[1,2-a]pyridin-3-yl)pyrimidin-2-yl]amino]-3-methoxy-phenyl]-9-oxa-3,7-diazabicyclo[3.3.1]nonan-7-yl]-N,N-dimethyl-acetamide] | 7 |
| COc1cc(N2CCN(C)CC2)ccc1Nc1ncc(Br)c(-c2cnc3ccccn23)n1 [Example 121, 5-bromo-4-imidazo[1,2-a]pyridin-3-yl-N-[2-methoxy-4-(4-methylpiperazin-1-yl)phenyl]pyrimidin-2-amine] | 15 |
| COc1cc(C2CCOCC2)ccc1Nc1ncc(F)c(-c2cnc3ccccn23)n1 [Example 113, 5-fluoro-4-imidazo[1,2-a]pyridin-3-yl-N-(2-methoxy-4-tetrahydropyran-4-yl-phenyl)pyrimidin-2-amine] | 33 |
| COc1ccc(N2CCC(OC)CC2)cc1Nc1ncc(F)c(-c2cnc3ccccn23)n1 [Example 77, 5-fluoro-4-imidazo[1,2-a]pyridin-3-yl-N-[2-methoxy-5-(4-methoxy-1-piperidyl)phenyl]pyrimidin-2-amine] | 184 |
